Reference: patent US9840532B2, “5′-substituted nucleoside compounds” (Eli Lilly and Company, priority 2015, dated 2017)

What follows are molecules tested against T1, PRMT5/MEP50 complex (Homo sapiens, UniProt O14744) (assay: PRMT5/MEP50 SPA Assay). Settings: Mean ± SEM.
T1 construct: FLAG; made in house; host or cells: baculovirus/Sf9 insect cells
Type: biochemical
Text: The purpose of this assay is to measure the ability of a test compound to inhibit the enzyme activity of PRMT5 in vitro by inhibiting the catalytic activity of PRMT5/MEP50 complex, indicated by the transfer of radiolabeled methyl-^3H to a substrate peptide derived from the N-terminal sequence of the human histone H4.
Express the PRMT5/MEP50 enzyme complex using a baculovirus/Sf9 system and purify using anti-FLAG affinity chromatography, (essentially as described in preparations by Stephen Antonysamy, Zahid Bonday, Robert M. Campbell, Brandon Doyle, Zhanna Druzina, Tarun Gheyi, Bomie Han, Louis N. Jungheim, Yuewei Qian, Charles Rauch, Marijane Russell, J. Michael Sauder, Stephen R. Wasserman, Kenneth Weichert, Francis S. Willard, Aiping Zhang, and Spencer Emtage; Crystal structure of the human PRMT5:MEP50 complex, Proceedings of the National Academy of Sciences, 2012, Volume 109, pages 17960-17965.) Dilute purified enzyme to a working stock of 6.67 nM in assay buffer (50 mM TRIZMA® preset pH ˜8.5, 1 mM DTT, 0.005% TWEEN® 80 0.01% HSA).
Add enzyme (15 μL/well) to a 384-well assay plate (CORNING® cat. #3706). Add test compounds from a 10 mM DMSO stock solution to the plate as serial dilutions in assay buffer to achieve a final test concentrations ranging from 50.0 μM to 25 nM. Create a reaction mix containing 1 μM Histone H4 biotinylated peptide substrate, H-[…]-biotin (SEQ ID NO: 1), prepared by FastMoc chemistry with an ABI 431 peptide, and 4 μM ^3H-SAM; 15 Ci/mmol, 0.366 mCi/mL, 37 μM, PERKIN-ELMER® cat. # NET155000MC) in assay buffer. To each plate well, add 5 μL of the peptide/^3H-SAM reaction mix to yield final assay conditions of 5 nM enzyme, 1 ^3H-SAM, 250 nM peptide and 50 μM maximum test compound concentration with 0.5% DMSO, at a final volume of 20 μL. Incubate the assay for 2 hr at room temperature. Stop the reaction with the addition of guanidine HCl (5 M, 20 μL, Sigma cat. # G3272).
Suspend strepavidin YSI SPA scintillation beads (PERKIN-ELMER®, #RPNQ0012) at 1 mg/mL in pH ˜8.5 Tris buffer containing 5 M guanidine HCl. To each well, add 20 μL of this bead suspension, agitate the resulting mixtures, and incubate for 1 hr at room temperature prior to measuring their radioactivity, using a microplate liquid scintillation counter as an indication of the formation of methylated peptide product.
Generate raw data from the radioactivity measurement as counts per min (CPM). Employ an uninhibited control (DMSO) and maximum inhibited control (250 μM dehydrosinefungin, (isolated essentially as described in Berry, D. R. & Abbott, B. J. Incorporation of carbon-14-labeled compounds into sinefungin (A9145), a nucleoside antifungal antibiotic. J. Antibiot. 1978 (31) 185-191 and references cited therein)). […]

T1 sequence (O14744 whole entry): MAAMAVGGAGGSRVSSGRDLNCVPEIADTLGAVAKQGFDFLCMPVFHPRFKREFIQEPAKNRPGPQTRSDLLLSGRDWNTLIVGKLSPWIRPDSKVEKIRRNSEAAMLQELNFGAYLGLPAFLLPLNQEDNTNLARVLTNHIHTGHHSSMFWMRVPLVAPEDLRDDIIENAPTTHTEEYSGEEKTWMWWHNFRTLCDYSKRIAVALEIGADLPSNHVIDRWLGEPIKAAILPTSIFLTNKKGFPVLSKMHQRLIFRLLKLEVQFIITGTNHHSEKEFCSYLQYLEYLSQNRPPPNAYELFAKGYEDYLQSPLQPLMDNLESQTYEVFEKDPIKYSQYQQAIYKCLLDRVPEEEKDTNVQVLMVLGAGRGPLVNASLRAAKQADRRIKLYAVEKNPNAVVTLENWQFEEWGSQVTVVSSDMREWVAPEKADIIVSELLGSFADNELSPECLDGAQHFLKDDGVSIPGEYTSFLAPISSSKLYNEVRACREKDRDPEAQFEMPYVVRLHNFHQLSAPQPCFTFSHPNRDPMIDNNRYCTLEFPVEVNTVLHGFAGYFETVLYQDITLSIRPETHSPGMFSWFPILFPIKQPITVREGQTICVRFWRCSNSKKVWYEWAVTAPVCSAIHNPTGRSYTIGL
T1 sequence (Q9BQA1 whole entry partner): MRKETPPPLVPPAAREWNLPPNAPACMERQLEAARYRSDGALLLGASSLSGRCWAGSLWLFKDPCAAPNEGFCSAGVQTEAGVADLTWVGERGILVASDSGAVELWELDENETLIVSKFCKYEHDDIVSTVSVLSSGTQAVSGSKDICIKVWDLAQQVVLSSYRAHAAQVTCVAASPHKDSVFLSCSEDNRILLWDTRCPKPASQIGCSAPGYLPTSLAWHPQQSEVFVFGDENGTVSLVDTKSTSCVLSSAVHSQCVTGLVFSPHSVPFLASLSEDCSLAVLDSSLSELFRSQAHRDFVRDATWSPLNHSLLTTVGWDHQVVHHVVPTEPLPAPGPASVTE

Row | IC50 [nM] | SMILES
1 | 4.27 | Nc1ncnc2c1ccn2[C@@H]1O[C@H]([C@H](O)c2ccc(Cl)cc2)[C@@H](O)[C@H]1O [Example 1, (2R,3R,4S,5R)-2-(4-Aminopyrrolo[2,3-d]pyrimidin-7-yl)-5-[(R)-(4-chlorophenyl)-hydroxy-methyl]tetrahydrofuran-3,4-diol]
2 | 5.23 | C[C@@](O)(c1ccc(Cl)cc1)[C@H]1O[C@@H](n2ccc3c(N)ncnc32)[C@H](O)[C@@H]1O [Example 3, (2R,3R,4S,5S)-2-(4-Aminopyrrolo[2,3-d]pyrimidin-7-yl)-5-[(1R)-1-(4-chlorophenyl)-1-hydroxy-ethyl]tetrahydrofuran-3,4-diol]

Row | SMILES | IC50 [nM]
3 | Nc1ncnc2c1ccn2[C@@H]1O[C@H]([C@H](O)c2ccccc2)[C@@H](O)[C@H]1O [Example 2, (2R,3R,4S,5R)-2-(4-Aminopyrrolo[2,3-d]pyrimidin-7-yl)-5[(R)-hydroxy(phenyl)methyl]tetrahydrofuran-3,4-diol] | 9.51
